Measured values taken from article PMC12609579, “Acute Myeloid Leukemia: A Key Role of DGKα and DGKζ in Cell Viability” (Cells, 2025).
Where two headings read alike, the source gives them in different places.

Key:
[1] = test system: Peripheral blood lymphocytes (PBLs); assay: alamarBlue cell viability assay, PBLs from healthy donors; assay type: cell-based, human; details: for IC50: Homo sapiens, Lymphocyte, PBLs from healthy donors
Protocol: These four cell lines were employed in this study as in vitro models of AML, cell line identity was verified through a Cell Line Authentication Test conducted by Eurofins Genomics (Ebersberg, Germany) or by the internal university service. The resulting markers matched 100% with those reported in the ATCC database. […] L. Manzoli (Bologna, Italy), is reported as K562-related, differing from K526 by a single marker. Cells were cultured in RPMI-1640 medium (ThermoFisher Scientific, Waltham, MA, USA) supplemented with 10% heat-inactivated fetal bovine serum (FBS) and 1% penicillin-streptomycin, following the handling protocols provided by ATCC (Manassas, VA, USA). Additionally, healthy donor blood samples were provided by the UPO biobank under approved Ethical Committee authorization (Comitato Etico Interaziendale A.O.U. Maggiore della Carità 865/CE-CE206/2022 date 24 October 2022) and with informed consent for research use. Peripheral blood mononuclear cells were isolated by density gradient centrifugation using Ficoll-Paque PLUS (GE 14 Healthcare, Chicago, IL, USA), washed, and resuspended at a concentration of 2 × 10^6 cells/mL in RPMI-1640 medium containing 10% heat-inactivated FBS. Peripheral blood lymphocytes (PBLs) were selected by the treatment with 1 μg/mL anti-CD3 (clone OKT3) and anti-CD28 (clone CD28.2) human antibodies for 72 h. […]
The alamarBlue assay was performed to assess cell viability in presence of chemical inhibitors. […] The fluorescence of the samples was measured 24 h later using a Spark 10 M Multimode Plate Reader (Tecan, Switzerland) with excitation and emission wavelengths of 535 nm and 590 nm, respectively. For dose–response curve fitting, fluorescence values were normalized according to the following formula:Viability (%) = [(sample mean fluorescence)/(DMSO control mean fluorescence)] ∗ 100
Data are the results of at least five independent experiments analyzed with GraphPad Prism 10 as [inhibitor] vs. normalized response curve (variable slope, after manual outlier removal). […]

[2] = test system: K562 cells; assay: Annexin V-FITC/7AAD apoptosis/necrosis flow cytometry, K562; assay type: cell-based, human; details: K562, 24 h
Protocol: (§1) To determine the type of cell death, apoptotic and necrotic cells were detected by flow cytometry using the Apoptosis Detection Kit Annexin V-FITC (Invitrogen, Carlsbad, CA, USA). For each sample, 500,000 cells, pretreated for 24 h, were stained according to manufacturer’s instructions, using 7-aminoactinomycin D (7AAD) instead of propidium iodide. Samples were analyzed on a BD FACS Symphony A5 flow cytometer (Franklin Lakes, NJ, USA) using BD FACSDiva 9.1 software. Data were gated based on FSC-A vs. FSC-H to exclude cell doublets and FSC-A vs. SSC-A to exclude debris. Different populations were identified as: live (Annexin V− and 7AAD−), necrotic (Annexin− and 7AAD+), early apoptotic (Annexin V+ and 7AAD−) and late apoptotic (Annexin+ and 7AAD+). Data are shown as mean ± SD of at least three independent experiments analyzed by GraphPad Prism 10 (control vs. [inhibitor]).

[3] = test system: THP-1 cells; assay: Annexin V-FITC/7AAD apoptosis/necrosis flow cytometry, THP-1; assay type: cell-based, human; details: THP-1, 24 h
Protocol: as §1

[4] = target: serotonin 5-HT2C receptor; design: method as in PMID 2860558; details: cited from earlier work
[5] = target: serotonin 5-HT2A receptor; details: cited from earlier work
[6] = test system: Kasumi-1; design: method as in PMID 37392305; details: xenograft mouse models injected with Kasumi-1; cited from earlier work
[7] = test system: HEL cells; assay: Annexin V-FITC/7AAD apoptosis/necrosis flow cytometry, HEL; assay type: cell-based, human; details: 24 h
Protocol: as §1

[8] = test system: HEL cells; assay: alamarBlue cell viability assay, HEL; assay type: cell-based, human
Protocol: (§2) The alamarBlue assay was performed to assess cell viability in presence of chemical inhibitors. A total of 50,000 cells per well were seeded in a 96-wells plate in a volume of 100 μL of complete medium together with 10 μL of 10× concentrated inhibitor solution and then incubated for either 24 or 72 h. Each experimental condition was performed in technical quadruplicates, using cells treated with equal amounts of DMSO vehicle as control and medium alone as background. After incubation, alamarBlue was added to each well at a final concentration of 0.15 mg/mL. The fluorescence of the samples was measured 24 h later using a Spark 10 M Multimode Plate Reader (Tecan, Switzerland) with excitation and emission wavelengths of 535 nm and 590 nm, respectively. For dose–response curve fitting, fluorescence values were normalized according to the following formula:Viability (%) = [(sample mean fluorescence)/(DMSO control mean fluorescence)] ∗ 100
(§3) Data are the results of at least five independent experiments analyzed with GraphPad Prism 10 as [inhibitor] vs. normalized response curve (variable slope, after manual outlier removal).

[9] = test system: THP-1 cells; assay: alamarBlue cell viability assay, THP-1; assay type: cell-based; details: Homo sapiens
Protocol: as §2, §3

[10] = test system: Kasumi-1; design: method as in PMID 37392305; details: read-out: IC50 (cytotoxic effects), cited from earlier work
[11] = test system: HL-60 cells; assay: Annexin V-FITC/7AAD apoptosis/necrosis flow cytometry, HL-60; assay type: cell-based, human; details: HL-60, 24 h
Protocol: as §1

[12] = concentration close to IC50, representative plot

**Q.** With Cc1nc2sccn2c(=O)c1CCN1CCC(=C(c2ccc(F)cc2)c2ccc(F)cc2)CC1 [ritanserin] as the molecule, how does the IC50 ([1]; 24 h) read?
**A.** 42.9 ± 1.3 µM

**Q.** What about the IC50 ([1]; 72 h) of the same molecule?
**A.** 32.5 ± 1.9 µM

**Q.** What about the “cell death of IL-2 stimulated proliferating PBLs” value ([1]; untransformed PBLs, 50 μM) of the same molecule?
**A.** complete cell death

**Q.** And the “Early apoptotic (Annexin V+ 7AAD-)” value [2, 12]?
**A.** 6.2%

**Q.** And the “Late apoptotic (Annexin+ 7AAD+)” value [2, 12]?
**A.** 1.7%

**Q.** What about the “Live cells (Annexin V- 7AAD-)” value [2, 12] of the same molecule?
**A.** 90.1%

**Q.** And the “Necrotic (Annexin- 7AAD+)” value [2, 12]?
**A.** 2.0%

**Q.** What about the “modality of cell death” value ([2]; concentration near IC50) of the same molecule?
**A.** early apoptosis

**Q.** What about the “Early apoptotic (Annexin V+ 7AAD-)” value [3, 12] of the same molecule?
**A.** 14.4%

**Q.** What about the “Late apoptotic (Annexin+ 7AAD+)” value [3, 12] of the same molecule?
**A.** 2.2%

**Q.** And the “Live cells (Annexin V- 7AAD-)” value [3, 12]?
**A.** 83.2%

**Q.** And the “Necrotic (Annexin- 7AAD+)” value [3, 12]?
**A.** 0.2%

**Q.** And the “modality of cell death” value ([3]; concentration near IC50)?
**A.** early apoptosis

**Q.** And the Ki [4]?
**A.** 0.00071 µM

**Q.** And the Ki [5]?
**A.** 0.00045 µM

**Q.** What about the survival [6] of the same molecule?
**A.** improved survival

**Q.** What about the tumor burden [6] of the same molecule?
**A.** significant reduction

**Q.** What about the “Early apoptotic (Annexin V+ 7AAD-)” value [7, 12] of the same molecule?
**A.** 12.2%

**Q.** And the “Late apoptotic (Annexin+ 7AAD+)” value [7, 12]?
**A.** 2.3%

**Q.** What about the “Live cells (Annexin V- 7AAD-)” value [7, 12] of the same molecule?
**A.** 82.5%

**Q.** And the “Necrotic (Annexin- 7AAD+)” value [7, 12]?
**A.** 2.9%

**Q.** And the “modality of cell death” value ([7]; concentration near IC50)?
**A.** early apoptosis

**Q.** And the IC50 ([8]; 24 h treatment then alamarBlue 24 h)?
**A.** ~49 µM

**Q.** And the IC50 ([8]; Homo sapiens, 24 h, 24 h treatment then alamarBlue 24 h)?
**A.** 49.2 ± 2 µM

**Q.** And the IC50 ([8]; Homo sapiens, 72 h treatment then alamarBlue 24 h)?
**A.** 29.6 ± 1 µM

**Q.** What about the IC50 ([9]; THP-1, 24 h, THP-1, 24 h treatment then alamarBlue 24 h) of the same molecule?
**A.** 37 ± 1.4 µM

**Q.** And the IC50 ([9]; THP-1, THP-1, 72 h treatment then alamarBlue 24 h)?
**A.** 32 ± 1.5 µM

**Q.** And the IC50 ([10]; Kasumi-1, 24 h)?
**A.** 51 µM

**Q.** What about the IC50 ([10]; Kasumi-1, 72 h) of the same molecule?
**A.** 30 µM

**Q.** And the “Early apoptotic (Annexin V+ 7AAD-)” value [11, 12]?
**A.** 3.3%

**Q.** And the “Late apoptotic (Annexin+ 7AAD+)” value [11, 12]?
**A.** 62.9%

**Q.** What about the “Live cells (Annexin V- 7AAD-)” value [11, 12] of the same molecule?
**A.** 33.8%

**Q.** And the “Necrotic (Annexin- 7AAD+)” value [11, 12]?
**A.** 0%

**Q.** And the “modality of cell death” value ([11]; concentration near IC50)?
**A.** late apoptosis
